In patent US10538498B2, “1,3,4-oxadiazole sulfonamide derivative compounds as histone deacetylase 6 inhibitor, and the pharmaceutical composition comprising the same” (Chong Kun Dang Pharmaceutical Corp., priority 2015, dated 2020):
pIC50: −log10 of the molar value.

How the values were obtained:
human recombinant HDAC1 = target: T1, human recombinant HDAC1 (Homo sapiens, UniProt Q13547); assay: HDAC1 enzyme activity inhibition assay (HDAC Fluorimetric Drug Discovery Kit); assay type: biochemical; conditions: 0.3 μg enzyme, 10 μM substrate, 30° C., 60 minutes
T1 construct: purchased Enzo Life Science BML-SE456
T1 sequence (Q13547 whole entry): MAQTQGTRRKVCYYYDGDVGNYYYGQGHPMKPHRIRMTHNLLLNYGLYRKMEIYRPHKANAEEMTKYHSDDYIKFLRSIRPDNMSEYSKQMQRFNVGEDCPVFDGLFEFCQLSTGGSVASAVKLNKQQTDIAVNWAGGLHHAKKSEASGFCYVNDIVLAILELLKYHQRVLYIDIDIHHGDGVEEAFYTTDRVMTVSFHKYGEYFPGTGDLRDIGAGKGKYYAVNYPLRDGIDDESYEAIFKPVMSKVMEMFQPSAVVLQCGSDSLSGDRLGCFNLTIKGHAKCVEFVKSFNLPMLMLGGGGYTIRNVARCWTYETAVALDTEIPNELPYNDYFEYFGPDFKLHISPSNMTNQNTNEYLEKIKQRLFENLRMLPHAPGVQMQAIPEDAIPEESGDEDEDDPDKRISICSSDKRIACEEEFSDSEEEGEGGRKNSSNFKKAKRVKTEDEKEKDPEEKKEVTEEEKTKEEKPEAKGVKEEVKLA
Protocol: In order to examine the HDAC6 selectivity of the compounds of formula I of the present invention by HDAC1 and HDAC6 enzymatic activity inhibition assays, an experiment was performed using a conventional substance as a control.
HDAC enzyme activity was measured using a HDAC Fluorimetric Drug Discovery Kit (BML-AK511, 516, Enzo Life Science). For the HDAC1 enzyme activity test, human recombinant HDAC1 (BML-SE456) was used as an enzyme source, and Fluor de Lys®-“SIRT1 (BNL-KI177) was used as a substrate. A 5-fold dilution of the compound was seeded into a 96-well plate, and then 0.3 μg of the enzyme and 10 μM of the substrate were added to each well of the plate and allowed to react at 30° C. for 60 minutes. Then, Fluor de Lys®-Developer II (BML-KI176) was added thereto and allowed to react for 30 minutes, after which the fluorescence value (Ex 360, Em 460) was measured using a multi-plate reader (Flexstation 3, Molecular Device). The HDAC6 enzyme was tested using human recombinant HDAC6 (382180) (Calbiochem) according to the same protocol as the HDAC1 enzyme activity test method. Based on the resulting values, each IC50 value was calculated using GraphPad Prism4.0 program.

human recombinant HDAC6 = target: T2, human recombinant HDAC6 (Homo sapiens, UniProt Q9UBN7); assay: HDAC6 enzyme activity inhibition assay (HDAC Fluorimetric Drug Discovery Kit); assay type: biochemical; conditions: for HDAC6 selectivity (fold): HDAC1 vs HDAC6; for pIC50: same protocol as the HDAC1 enzyme activity test
T2 construct: purchased Calbiochem 382180
T2 sequence (Q9UBN7 1-1215): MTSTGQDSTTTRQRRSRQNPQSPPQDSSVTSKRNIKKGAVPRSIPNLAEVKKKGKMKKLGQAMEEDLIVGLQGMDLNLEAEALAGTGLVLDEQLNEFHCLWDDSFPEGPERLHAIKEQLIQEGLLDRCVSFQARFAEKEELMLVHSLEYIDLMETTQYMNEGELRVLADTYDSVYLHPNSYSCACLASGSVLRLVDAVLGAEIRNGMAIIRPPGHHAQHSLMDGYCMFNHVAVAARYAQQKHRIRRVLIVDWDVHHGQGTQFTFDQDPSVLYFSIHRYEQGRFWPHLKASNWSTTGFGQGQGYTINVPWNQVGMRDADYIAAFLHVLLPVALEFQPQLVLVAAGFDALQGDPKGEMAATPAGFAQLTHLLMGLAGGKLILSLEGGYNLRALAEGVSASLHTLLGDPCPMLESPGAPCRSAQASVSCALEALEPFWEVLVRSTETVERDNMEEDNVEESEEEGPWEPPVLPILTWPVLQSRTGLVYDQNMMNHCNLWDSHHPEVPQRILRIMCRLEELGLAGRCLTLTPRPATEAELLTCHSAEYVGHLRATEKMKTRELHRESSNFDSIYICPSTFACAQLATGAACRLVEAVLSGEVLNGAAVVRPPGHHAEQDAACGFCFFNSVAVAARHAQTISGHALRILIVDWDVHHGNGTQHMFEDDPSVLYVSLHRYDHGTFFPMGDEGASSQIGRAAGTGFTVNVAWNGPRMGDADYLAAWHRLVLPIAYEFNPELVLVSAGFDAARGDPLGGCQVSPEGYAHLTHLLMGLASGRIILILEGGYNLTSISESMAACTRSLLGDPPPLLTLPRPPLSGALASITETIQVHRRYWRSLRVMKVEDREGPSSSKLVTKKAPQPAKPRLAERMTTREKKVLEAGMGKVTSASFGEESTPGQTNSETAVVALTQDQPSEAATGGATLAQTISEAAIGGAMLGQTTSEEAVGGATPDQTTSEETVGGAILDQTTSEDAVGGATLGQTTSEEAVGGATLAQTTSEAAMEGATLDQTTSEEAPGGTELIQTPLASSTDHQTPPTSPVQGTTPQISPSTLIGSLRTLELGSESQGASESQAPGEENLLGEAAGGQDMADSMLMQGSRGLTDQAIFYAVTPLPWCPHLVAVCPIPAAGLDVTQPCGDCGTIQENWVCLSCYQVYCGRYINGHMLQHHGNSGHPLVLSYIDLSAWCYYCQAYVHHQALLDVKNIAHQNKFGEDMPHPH
In short: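 IC50s derived from fluorescence (Ex 360, Em 460) read after a 30-min developer step. Beforehand, compounds in 5-fold dilution series reacted 60 min at 30° C with 0.3 μg human recombinant enzyme and 10 μM Fluor de Lys-SIRT1 substrate.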

| Compound | pIC50 (human recombinant HDAC1) | HDAC6 selectivity (fold) (human recombinant HDAC6) | pIC50 (human recombinant HDAC6) |
| --- | --- | --- | --- |
| CS(=O)(=O)N(Cc1ccc(-c2nnc(C(F)(F)F)o2)cc1F)c1cccc(Cl)c1 [Compound 11190, N-(3-chlorophenyl)-N-(2-fluoro-4-(5-(trifluoromethyl)-1,3,4-oxadiazol-2-yl)benzyl)methanesulfonamide] | 4.71 | 151 | 6.89 |
| COc1ccc(N(Cc2ccc(-c3nnc(C(F)(F)F)o3)cc2F)S(C)(=O)=O)cc1 [Compound 11192, N-(2-fluoro-4-(5-(trifluoromethyl)-1,3,4-oxadiazol-2-yl)benzyl)-N-(4-methoxyphenyl)methanesulfonamide] | 5.15 | 108 | 7.19 |
| CS(=O)(=O)N(Cc1ccc(-c2nnc(C(F)(F)F)o2)cc1F)c1cccc(Br)c1 [Compound 11196, N-(3-bromophenyl)-N-(2-fluoro-4-(5-(trifluoromethyl)-1,3,4-oxadiazol-2-yl)benzyl)methanesulfonamide] | 4.54 | 441 | 7.19 |
| CS(=O)(=O)N(Cc1ccc(-c2nnc(C(F)(F)F)o2)cn1)c1cccc(F)c1 [Compound 11216, N-(3-fluorophenyl)-N-((5-(5-(trifluoromethyl)-1,3,4-oxadiazol-2-yl)pyridin-2-yl)methyl)methanesulfonamide] | 4.55 | 368 | 7.12 |
| CS(=O)(=O)N(Cc1ccc(-c2nnc(C(F)(F)F)o2)cc1F)c1ccc(C(F)(F)F)cc1 [Compound 11220, N-(2-fluoro-4-(5-(trifluoromethyl)-1,3,4-oxadiazol-2-yl)benzyl)-N-(4-(trifluoromethyl)phenyl)methanesulfonamide] | 4.58 | 845 | 7.51 |

More lines, now with the values ahead:

| pIC50 (human recombinant HDAC1) | HDAC6 selectivity (fold) (human recombinant HDAC6) | pIC50 (human recombinant HDAC6) | Compound |
| --- | --- | --- | --- |
| 4.94 | 297 | 7.41 | CS(=O)(=O)N(Cc1ccc(-c2nnc(C(F)(F)F)o2)cc1F)c1ccc2c(c1)OCO2 [Compound 11226, N-(benzo[d][1,3]dioxol-5-yl)-N-(2-fluoro-4-(5-(trifluoromethyl)-1,3,4-oxadiazol-2-yl)benzyl)methanesulfonamide] |
| 4.73 | 288 | 7.19 | CCS(=O)(=O)N(Cc1ccc(-c2nnc(C(F)(F)F)o2)cn1)c1ccc(F)c(Cl)c1 [Compound 11429, N-(3-chloro-4-fluorophenyl)-N-((5-(5-(trifluoromethyl)-1,3,4-oxadiazol-2-yl)pyridin-2-yl)methyl)ethanesulfonamide] |
| 4.65 | 529 | 7.38 | CCS(=O)(=O)N(Cc1ccc(-c2nnc(C(F)(F)F)o2)cn1)c1ccccc1 [Compound 11430, N-phenyl-N-((5-(5-(trifluoromethyl)-1,3,4-oxadiazol-2-yl)pyridin-2-yl)methyl)ethanesulfonamide] |
| 4.55 | 453 | 7.21 | O=S(=O)(C1CCOCC1)N(Cc1ccc(-c2nnc(C(F)(F)F)o2)cn1)c1ccccc1 [Compound 11431, N-phenyl-N-((5-(5-(trifluoromethyl)-1,3,4-oxadiazol-2-yl)pyridin-2-yl)methyl)tetrahydro-2H-pyran-4-sulfonamide] |
| 4.78 | 271 | 7.21 | CS(=O)(=O)N(Cc1ccc(-c2nnc(C(F)(F)F)o2)cn1)c1ccc(F)c(Cl)c1 [Compound 11432, N-(3-chloro-4-fluorophenyl)-N-((5-(5-(trifluoromethyl)-1,3,4-oxadiazol-2-yl)pyridin-2-yl)methyl)methanesulfonamide] |
| 4.57 | 3018 | 8.05 | CN1CC(N2CCC(S(=O)(=O)N(Cc3ccc(-c4nnc(C(F)F)o4)cc3F)c3ccc(F)c(Cl)c3)CC2)C1 [Compound 11451, N-(3-chloro-4-fluorophenyl)-N-(4-(5-(difluoromethyl)-1,3,4-oxadiazol-2-yl)-2-fluorobenzyl)-1-(1-methylazetidin-3-yl)piperidine-4-sulfonamide] |
